How the values were obtained:
PIM-3 kinase = PIM-3 kinase (Homo sapiens, UniProt Q86V86); test: Measurement of PIM-3 kinase inhibitory activity (fluorescent substrate peptide, capillary electrophoresis); format: biochemical; details: 30 μM ATP, 2 hours at room temperature
Description: 1.5 μM of fluorescent substrate peptide (FAM-AKRRRLSSLRA-COOH), 30 μM of ATP, and 0.0833 ng/μL of PIM-3 kinase were incubated with a compound for 2 hours at room temperature, and the Pim-3 kinase activity was measured. The reaction was quantified by separating the substrate and phosphorylation reaction product by capillary electrophoresis (using a Perkin-Elmer EZ reader II) based on the difference in their charges. The results are shown below in Tables 1 and 2.

PANC-1 [1] = test: Growth inhibitory activity on human pancreatic cancer cell lines (Example 2, WST-8); format: cell-based; details: cultured for 72 hours, 2000 cells/well
Description: (§1) Two thousand cells of human pancreatic cancer cells lines (L3.6pl, MiaPaca-2, PANC-1, PCI35, PCI66) were seeded in a medium volume of 100 μL in each well of a 96-well microtiter plate. The medium was removed after 18 hours, and 100 μL/well of medium containing the test compound was added. Culture was continued for 72 or 96 hours. The medium containing the test compound was removed, and 100 μL/well of medium containing 10% WST-8 (Dojindo Laboratories Cell Counting kit-8) was added. After culturing for one hour, the OD 450 nm absorbance was measured, and the cell growth inhibitory activity was calculated. Furthermore, RPMI-1640 medium (Sigma) was used as the medium with 10% fetal calf serum (Invitrogen), 50 U/mL penicillin G (Sigma), and 50 μg/mL streptomycin (Sigma) added. The cell lines were cultured at 37° C. in a carbon dioxide incubator with a carbon dioxide concentration of 5%.
(§2) Tables 3 and 4 show the results of compound evaluation when cultured for 96 hours.

MiaPaca-2 [2] = test: as above; format: cell-based; details: cultured for 72 hours, 2000 cells/well
Description: as §1, §2

L3.6pl [3] = test: as above; format: cell-based; details: cultured for 72 hours, 2000 cells/well
Description: as §1, §2

PANC-1 [4] = test: Growth inhibitory activity on human pancreatic cancer cell lines (Example 4, WST-8); format: cell-based; details: Example 4: 72 hours, 3000 cells/well
Description: (§3) Three thousand cells of human pancreatic cancer cell lines (L3.6pl, MiaPaca-2, PANC-1, PCI35, and PCI66) were seeded in a medium volume of 90 μL in each well of a 96-well microtiter plate. After 24 hours, 10 μL/well of medium containing the test compound was added. Culture was continued for 72 hours, and 10 μL/well of WST-8 (Dojindo Laboratories Cell Counting kit-8) was added. After culturing for 2 hours, the OD 450 nm absorbance was measured, and the cell growth inhibitory effect was calculated. The cell lines were cultured in a carbon dioxide incubator with a carbon dioxide concentration of 5%.

MiaPaca-2 [5] = test: as above; format: cell-based; details: MIA PaCa-2, Example 4: 72 hours, 3000 cells/well
Description: as §3

PCI66 = test: as above; format: cell-based; details: Example 4: 72 hours, 3000 cells/well
Description: as §3

L3.6pl [6] = test: as above; format: cell-based; details: Example 4: 72 hours, 3000 cells/well
Description: as §3

PCI35 = test: as above; format: cell-based; details: Example 4: 72 hours, 3000 cells/well
Description: as §3

Structure (SMILES) | IC50 (PIM-3 kinase) | IC50 (PANC-1 [1]; Homo sapiens, PANC-1, 72 h) | IC50 (MiaPaca-2 [2]; Homo sapiens, MIA PaCa-2) | IC50 (L3.6pl [3]; Homo sapiens, L3.6pl, 72 h) | also measured
COc1ccc2c(c1CN1CCNCC1)O/C(=C\c1n[nH]c3nc(C)ccc13)C2=O [Compound 7, (Z)-6-methoxy-2-[(6-methyl-1H-pyrazolo[3,4-b]pyridin-3-yl)methylene]-7-(piperazin-1-ylmethyl)benzofuran-3(2H)-one] | 2.8 nM |  |  |  | 
COc1ccc2c(c1CN1C[C@@H](C)N[C@@H](C)C1)O/C(=C\c1n[nH]c3ncccc13)C2=O [Compound 10, (Z)-2-[(1H-pyrazolo[3,4-b]pyridin-3-yl)methylene]-7-[(cis-3,5-dimethylpiperazin-1-yl)methyl]-6-methoxybenzofuran-3(2H)-one] | 19 nM | 14000 nM | 3000 nM | 7500 nM | 
COc1ccc2c(c1CN1CC[C@H](N)C1)O/C(=C\c1n[nH]c3ncccc13)C2=O [Compound 14, (S,Z)-2-[(1H-pyrazolo[3,4-b]pyridin-3-yl)methylene]-7-[(3-aminopyrrolidin-1-yl)methyl]-6-methoxybenzofuran-3(2H)-one] | 1 nM |  |  |  | 
COc1ccc2c(c1CC1CCNCC1)O/C(=C\c1n[nH]c3nc(C)ccc13)C2=O [Compound 16, (Z)-6-methoxy-2-[(6-methyl-1H-pyrazolo[3,4-b]pyridin-3-yl)methylene]-7-(piperidin-4-ylmethyl)benzofuran-3(2H)-one] | 0.7 nM |  |  |  | 
O=C1/C(=C/c2n[nH]c3ncccc23)Oc2c1ccc(OC(F)F)c2CC1CCNCC1 [Compound 17, (Z)-2-[(1H-pyrazolo[3,4-b]pyridin-3-yl)methylene]-6-(difluoromethoxy)-7-(piperidin-4-ylmethyl)benzofuran-3(2H)-one] | 2.2 nM |  |  |  | IC50 (PANC-1 [4]): 9700 nM; IC50 (MiaPaca-2 [5]): 3200 nM; IC50 (PCI66): 18000 nM; IC50 (L3.6pl [6]): 6200 nM; IC50 (PCI35): 9300 nM
COc1ccc2c(c1CC1CCNCC1F)O/C(=C\c1n[nH]c3ncccc13)C2=O (centres unmarked) [Compound 18, (Z)-2-[(1H-pyrazolo[3,4-b]pyridin-3-yl)methylene]-7-[(3-fluoropiperidin-4-yl)methyl]-6-methoxybenzofuran-3(2H)-one] | 0.35 nM | 420 nM | 220 nM | 250 nM | 
C=C(CN1CCNCC1)c1c(OC)ccc2c1O/C(=C\c1n[nH]c3ncccc13)C2=O [Compound 24, (Z)-2-[(1H-pyrazolo[3,4-b]pyridin-3-yl)methylene]-6-methoxy-7-[3-(piperazin-1-yl)prop-1-en-2-yl]benzofuran-3(2H)-one] | 12 nM |  |  |  | 
CN[C@H]1CCN(Cc2c(OC)ccc3c2O/C(=C\c2n[nH]c4ncccc24)C3=O)C1 [Compound 26, (S,Z)-2-[(1H-pyrazolo[3,4-b]pyridin-3-yl)methylene]-6-methoxy-7-{[3-(methylamino)pyrrolidin-1-yl]methyl}benzofuran-3(2H)-one] | 1.1 nM |  |  |  | 
COc1ccc2c(c1CN1CCC[C@@H]1CN)O/C(=C\c1n[nH]c3ncccc13)C2=O [Compound 31, (R,Z)-2-[(1H-pyrazolo[3,4-b]pyridin-3-yl)methylene]-7-{[2-(aminomethyl)pyrrolidin-1-yl]methyl}-6-methoxybenzofuran-3(2H)-one] | 0.96 nM |  |  |  | 

Continued by falling IC50 (PIM-3 kinase), values first:

IC50 (PIM-3 kinase) | IC50 (PANC-1 [1]; Homo sapiens, PANC-1, 72 h) | IC50 (MiaPaca-2 [2]; Homo sapiens, MIA PaCa-2) | IC50 (L3.6pl [3]; Homo sapiens, L3.6pl, 72 h) | Structure (SMILES) | also measured
150 nM | 8400 nM | 2400 nM | 3500 nM | COc1ccc2c(c1CN1[C@H](C)CNC[C@@H]1C)O/C(=C\c1n[nH]c3ncccc13)C2=O [Compound 13, (Z)-2-[(1H-pyrazolo[3,4-b]pyridin-3-yl)methylene]-7-[(cis-2,6-dimethylpiperazin-1-yl)methyl]-6-methoxybenzofuran-3(2H)-one] | 
38 nM | 12000 nM | 3500 nM | 3500 nM | COc1ccc2c(c1CN1CCNC[C@H]1C)O/C(=C\c1n[nH]c3ncccc13)C2=O [Compound 8, (R,Z)-2-[(1H-pyrazolo[3,4-b]pyridin-3-yl)methylene]-6-methoxy-7-[(2-methylpiperazin-1-yl)methyl]benzofuran-3(2H)-one] | 
8.4 nM | 12000 nM | 3000 nM | 4000 nM | COc1ccc2c(c1CN1CCNC[C@@H]1C)O/C(=C\c1n[nH]c3ncccc13)C2=O [Compound 9, (S,Z)-2-[(1H-pyrazolo[3,4-b]pyridin-3-yl)methylene]-6-methoxy-7-[(2-methylpiperazin-1-yl)methyl]benzofuran-3(2H)-one] | 
7.9 nM | 8200 nM | 3200 nM | 3500 nM | COc1ccc2c(c1CN1CCN[C@H](C)C1)O/C(=C\c1n[nH]c3ncccc13)C2=O [Compound 12, (R,Z)-2-[(1H-pyrazolo[3,4-b]pyridin-3-yl)methylene]-6-methoxy-7-[(3-methylpiperazin-1-yl)methyl]benzofuran-3(2H)-one] | 
6.4 nM |  |  |  | COc1ccc2c(c1C(C)CN1CCNCC1)O/C(=C\c1n[nH]c3ncccc13)C2=O (centres unmarked) [Compound 27, (Z)-2-[(1H-pyrazolo[3,4-b]pyridin-3-yl)methylene]-6-methoxy-7-[1-(piperazin-1-yl)propan-2-yl]benzofuran-3(2H)-one] | 
1.6 nM |  |  |  | COc1ccc2c(c1CN1CC[C@@H](N)C1)O/C(=C\c1n[nH]c3ncccc13)C2=O [Compound 15, (R,Z)-2-[(1H-pyrazolo[3,4-b]pyridin-3-yl)methylene]-7-[(3-aminopyrrolidin-1-yl)methyl]-6-methoxybenzofuran-3(2H)-one] | 
1.4 nM | 8300 nM | 3400 nM | 3500 nM | COc1ccc2c(c1CN1CCN[C@@H](C)C1)O/C(=C\c1n[nH]c3ncccc13)C2=O [Compound 11, (S,Z)-2-[(1H-pyrazolo[3,4-b]pyridin-3-yl)methylene]-6-methoxy-7-[(3-methylpiperazin-1-yl)methyl]benzofuran-3(2H)-one] | 
1.3 nM |  |  |  | CCOc1ccc2c(c1C(C)N1CCNCC1)O/C(=C\c1n[nH]c3ncccc13)C2=O (centres unmarked) [Compound 22, (Z)-2-[(1H-pyrazolo[3,4-b]pyridin-3-yl)methylene]-6-ethoxy-7-[1-(piperazin-1-yl)ethyl]benzofuran-3(2H)-one] | IC50 (PANC-1 [4]): 2700 nM; IC50 (MiaPaca-2 [5]): 1300 nM; IC50 (PCI66): 2500 nM; IC50 (L3.6pl [6]): 2800 nM; IC50 (PCI35): 1800 nM
1.3 nM |  |  |  | O=C1/C(=C/c2n[nH]c3ncccc23)Oc2c1ccc(Cl)c2CC1CCNCC1 [Compound 28, (Z)-2-[(1H-pyrazolo[3,4-b]pyridin-3-yl)methylene]-6-chloro-7-(piperidin-4-ylmethyl)benzofuran-3(2H)-one] | 
0.7 nM |  |  |  | COc1ccc2c(c1CC1CCNCC1F)O/C(=C\c1n[nH]c3ncccc13)C2=O (centres unmarked) [Compound 19, (Z)-2-[(1H-pyrazolo[3,4-b]pyridin-3-yl)methylene]-7-[(3-fluoropiperidin-4-yl)methyl]-6-methoxybenzofuran-3(2H)-one] | IC50 (PANC-1 [1]): 330 nM; IC50 (MiaPaca-2 [2]): 220 nM; IC50 (L3.6pl [3]): 300 nM
0.62 nM |  |  |  | CC(c1c(OCC2CC2)ccc2c1O/C(=C\c1n[nH]c3ncccc13)C2=O)N1CCNCC1 (centres unmarked) [Compound 23, (Z)-2-[(1H-pyrazolo[3,4-b]pyridin-3-yl)methylene]-6-(cyclopropylmethoxy)-7-[1-(piperazin-1-yl)ethyl]benzofuran-3(2H)-one] | IC50 (PANC-1 [4]): 8000 nM; IC50 (MiaPaca-2 [5]): 3800 nM; IC50 (PCI66): 4200 nM; IC50 (L3.6pl [6]): 9800 nM; IC50 (PCI35): 5300 nM

Reference: patent US20170145005A1, “KINASE INHIBITOR” (THE UNIVERSITY OF TOKYO, priority 2014, published 2017)
